Values quoted from earlier work as cited in US20200155636A1, “Medicament and Beverage for Improving Joint and Bone Diseases” (priority 2017, published 2020).

Settings: oral application

- absorption (small intestine): absorbed in the small intestine
Substance: hyaluronic acid
- stability against gastric acid: survives the gastric acid
